Data from article PMC10821046, “Harmaline to Human Mitochondrial Caseinolytic Serine Protease Activation for Pediatric Diffuse Intrinsic Pontine Glioma Treatment” (Pharmaceuticals, 2024).

Experiments:
hClpP = biological target: T1, hClpP (Homo sapiens, UniProt Q16740); experiment: FITC-casein hClpP activity test; assay type: biochemical; conditions: 100 µM, normalized to 100 µM ONC201 activity
T1 construct: made in house; host or cells: E. coli BL21-CodonPlus (DE3)-RIL
Description: To assess the potency of the proteolytic activity of hClpP, a FITC–casein assay was performed. In a black, flat-bottom, 96-well plate, a 3 μM solution of purified hClpP in assay buffer (50 mM of HEPES, pH 7.5, 300 mM of KCl, 1 mM of DTT, 15% v/v glycerol; AB) preincubated at 37 °C for 15 min was added to 5 μL of the tested compounds in DMSO at different concentrations (ranging from 1 to 100 μM) and incubated for 15 min at 37 °C under shaking. As a control, three wells were filled with 5 µL of DMSO. The kinetic measurement was started after adding 2 µM of the fluorogenic peptides FITC and casein (Merck, C3777), used as hydrolytic substrates. The fluorescence of the cleaved FITC was recorded over 60 min at 37 °C on a Tecan Infinite M200 Pro (λex: 485 nm, emission λem: 535 nm, gain: 60). The slope in the linear range between 600 and 1800 s was determined and plotted against time. The EC50 for each tested compound was calculated using GraphPad Prism 7.05. Results are reported as the mean of two independent experiments performed in triplicate.

SU-DIPG-36 cells = experiment: 2D cell viability assay (CCK8); assay type: cell-based, human; conditions: SU-DIPG-36, 100 µM, 72 h exposure
Description: (§1) Patient-derived diffuse intrinsic pontine glioma cell cultures (SU-DIPG-36, SU-DIPG-50) were provided by Dr Michelle Monje (Institutional Review Board (Stanford University) approval). The cells were cultured as a monolayer in media that was changed once a week at 37 °C in 5% CO2 by using Tumor Stem Media composed by: a 1:1 ratio of DMEM/F12 (Invitrogen)/Neurobasal (-A) (Invitrogen), B27 (-A) (Life Technologies, Milan, Italy), 20 ng/mL of human basic fibroblast growth factor (Life Technologies), 20 ng/mL of recombinant human epidermal growth factor (Life Technologies), 10 ng/mL of platelet-derived growth factor-AA, 10 ng/mL of platelet-derived growth factor-BB (Life Technologies), and 20 ng/mL of heparin (StemCell Technologies, Milan, Italy).
(§2) Then, 1 × 10^4 SU-DIPG-36 or SU-DIPG-50 cells/well in 100 µL of culture medium were seeded into 96-well plates and incubated O/N at 37 °C in CO2 (5%). […] Control wells with DMSO were used to evaluate the possible cytotoxicity of the solvent. […] Then, the absorbance was red (λ = 450 nm) with Tecan Infinite 200. GraphPad Prism allowed for the determination of IC50.

SU-DIPG-50 cells = experiment: 2D cell viability assay (CCK8); assay type: cell-based, human; conditions: SU-DIPG-50, 100 µM, 72 h exposure
Description: as §1, §2

SH-SY-5Y spheroids = experiment: 3D cell viability assay (CellTiter-Glo 3D, ATP); assay type: cell-based, human; conditions: 72 h; for viability at 100 µM: Homo sapiens, SH-SY5Y, ATP assay, mean ± SEM; for decrease in cell viability: SH-SY-5Y spheroids, highest concentration (100 µM)
SK-N-AS spheroids = experiment: 3D cell viability assay (CellTiter-Glo 3D, ATP); assay type: cell-based, human; conditions: 72 h; for viability at 100 µM: Homo sapiens, SK-N-AS, ATP assay, mean ± SEM; for decrease in cell viability: SK-N-AS spheroids, highest concentration (100 µM)
P-gp = biological target: T2, P-gp (Homo sapiens, UniProt P08183); experiment: Calcein-AM experiment in MDCK-MDR1 cells; assay type: cell-based
T2 construct: expressed in transfected cells; host or cells: MDCK-MDR1
Description: Here, 3 × 10^4 MDCK-MDR1 cells/well were seeded (100 µL) in a black 96-well culture plate and incubated in CO2 (5%) at 37 °C O/N. The compounds to be tested were added at different concentrations (0.1–100 µM) in 100 µL of culture medium and then incubated for 30 min. […] The fluorescence of the wells containing the tested compounds was compared with that of those containing the untreated cells. The percentage of fluorescence as a function of log[dose] allowed the EC50 values to be determined.

[1] = Drug transport experiments, Caco-2 monolayer; assay type: in vitro ADME; conditions: human, 1 × 10^−4 M
Description: The experiment started with the preparation of the Caco-2 monolayer, which occurred by seeding the cells (20,000/well) in Millicell plates (Millipore, Milan, Italy). Its growth was followed for 21 days by changing the medium occasionally and measuring its transepithelial electrical resistance (TEER) daily using an epithelial voltohmmeter (Millicell-ERS) until at least […] was reached.
After 21 days, the plate was washed twice with Hank’s balanced salt solution (HBSS) (Invitrogen). After the second wash, the wells were filled with buffer, and the plate was kept at 37 °C for 30 min. After the incubation time, the HBSS buffer was replaced with the solutions of the compounds to be tested at a concentration of 1 × 10^−4 M. The plates were placed in an incubator at 37 °C for 120 min. The apparent permeability (Papp), in units of nm s^−1, was calculated.

BCRP = biological target: T3, BCRP (Homo sapiens, UniProt Q9UNQ0); experiment: Hoechst 33342 experiment in MDCK-BCRP cells; assay type: cell-based; conditions: Hoechst 33342, MDCK-BCRP cells
T3 construct: expressed in transfected cells; host or cells: MDCK-BCRP
T3 sequence (Q9UNQ0 1-655): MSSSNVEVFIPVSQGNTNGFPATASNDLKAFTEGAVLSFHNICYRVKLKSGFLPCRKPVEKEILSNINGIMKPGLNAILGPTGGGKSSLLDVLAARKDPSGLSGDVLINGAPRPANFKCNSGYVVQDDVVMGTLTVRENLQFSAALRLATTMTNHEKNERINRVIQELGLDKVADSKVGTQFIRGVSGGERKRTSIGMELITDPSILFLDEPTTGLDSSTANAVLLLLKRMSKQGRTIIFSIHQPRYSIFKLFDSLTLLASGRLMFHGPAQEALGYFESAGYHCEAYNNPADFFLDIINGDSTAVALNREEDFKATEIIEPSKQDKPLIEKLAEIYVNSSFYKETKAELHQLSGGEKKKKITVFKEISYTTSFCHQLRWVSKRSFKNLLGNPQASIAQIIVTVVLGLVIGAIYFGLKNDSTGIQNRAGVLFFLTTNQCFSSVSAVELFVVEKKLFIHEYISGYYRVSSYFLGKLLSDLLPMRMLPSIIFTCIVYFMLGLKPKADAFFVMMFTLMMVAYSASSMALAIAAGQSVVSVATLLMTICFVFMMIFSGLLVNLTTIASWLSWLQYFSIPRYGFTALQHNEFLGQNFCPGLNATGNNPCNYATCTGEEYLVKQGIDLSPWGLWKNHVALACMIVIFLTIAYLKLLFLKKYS
Description: Firstly, 3 × 10^4 MDCK-BCRP cells/well were seeded (100 µL) in a 96-well black culture plate and brought to O/N confluence in a 5% CO2 incubator at 37 °C. Different concentrations (0.1–100 µM) of the compounds in the culture medium (100 µL) to be tested were added, and the plate was incubated for 30 min. […] The supernatant was aspirated, and the cells were fixed for 20 min with 4% PFA (100 µL), protecting them from light. Three washes with ice-cold PBS and three washes with saline buffer followed, and then the plate was analyzed (λex 350 nm and λem 460 nm) by Victor3 (PerkinElmer). EC50 values were calculated from the percentage increase in fluorescence compared to log[dose].

T2 sequence (P08183 whole entry): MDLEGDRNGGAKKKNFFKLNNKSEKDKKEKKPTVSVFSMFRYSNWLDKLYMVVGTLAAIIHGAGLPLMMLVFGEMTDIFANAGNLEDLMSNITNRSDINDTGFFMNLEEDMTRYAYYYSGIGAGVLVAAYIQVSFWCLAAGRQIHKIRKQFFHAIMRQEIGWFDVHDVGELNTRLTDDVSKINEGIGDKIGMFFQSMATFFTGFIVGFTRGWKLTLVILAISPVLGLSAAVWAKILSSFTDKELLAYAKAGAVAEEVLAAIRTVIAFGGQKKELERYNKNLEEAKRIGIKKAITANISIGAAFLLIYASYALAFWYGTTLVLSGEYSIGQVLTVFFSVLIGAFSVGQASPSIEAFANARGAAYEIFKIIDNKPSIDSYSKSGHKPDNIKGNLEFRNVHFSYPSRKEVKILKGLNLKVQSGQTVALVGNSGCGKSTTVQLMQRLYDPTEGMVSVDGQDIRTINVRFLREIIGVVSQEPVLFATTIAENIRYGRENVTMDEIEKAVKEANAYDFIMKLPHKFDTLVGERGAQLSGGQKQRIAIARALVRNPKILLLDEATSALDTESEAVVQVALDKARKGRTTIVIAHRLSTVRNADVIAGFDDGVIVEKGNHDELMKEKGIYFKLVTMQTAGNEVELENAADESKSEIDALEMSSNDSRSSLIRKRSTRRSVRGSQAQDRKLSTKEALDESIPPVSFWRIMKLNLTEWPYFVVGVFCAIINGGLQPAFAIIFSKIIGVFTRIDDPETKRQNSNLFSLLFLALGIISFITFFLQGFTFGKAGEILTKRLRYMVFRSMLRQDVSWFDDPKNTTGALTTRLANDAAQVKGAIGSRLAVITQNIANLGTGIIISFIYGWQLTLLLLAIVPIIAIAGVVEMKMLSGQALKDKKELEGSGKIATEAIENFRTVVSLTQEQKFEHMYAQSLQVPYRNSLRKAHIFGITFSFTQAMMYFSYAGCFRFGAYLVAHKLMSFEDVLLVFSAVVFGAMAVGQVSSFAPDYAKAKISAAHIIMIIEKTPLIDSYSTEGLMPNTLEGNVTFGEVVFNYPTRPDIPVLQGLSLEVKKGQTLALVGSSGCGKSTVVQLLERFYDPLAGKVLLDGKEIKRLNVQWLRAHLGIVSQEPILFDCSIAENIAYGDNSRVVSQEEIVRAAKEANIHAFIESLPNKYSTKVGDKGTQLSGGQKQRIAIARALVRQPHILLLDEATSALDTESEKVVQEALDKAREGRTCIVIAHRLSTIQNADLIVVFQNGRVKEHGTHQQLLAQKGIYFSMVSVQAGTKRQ
T1 sequence (Q16740 with tags, fused parts or gaps): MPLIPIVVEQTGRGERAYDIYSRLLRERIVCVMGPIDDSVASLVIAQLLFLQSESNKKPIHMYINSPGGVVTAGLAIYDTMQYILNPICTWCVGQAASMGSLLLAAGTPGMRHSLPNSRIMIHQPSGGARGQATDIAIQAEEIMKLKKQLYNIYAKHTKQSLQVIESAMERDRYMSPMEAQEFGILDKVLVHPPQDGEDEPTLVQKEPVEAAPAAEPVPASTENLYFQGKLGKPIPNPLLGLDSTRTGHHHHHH

SMILES	activation of hClpP (hClpP)	cancer cell death (cytotoxic effect) (SU-DIPG-36 cells)	cancer cell death (cytotoxic effect) (SU-DIPG-50 cells)	viability at 100 µM (SH-SY-5Y spheroids)	decrease in cell viability (SH-SY-5Y spheroids)	viability at 100 µM (SK-N-AS spheroids)	decrease in cell viability (SK-N-AS spheroids)	EC50 (P-gp)	Papp A→B at 120 min ([1]; Caco-2, apical-basolateral)	Papp B→A at 120 min ([1]; Caco-2, basolateral-apical)	EC50 (BCRP)
COc1ccc2c3c([nH]c2c1)C(C)=NCC3 [Harmaline, 7-methoxy-1-methyl-4,9-dihydro-3H-pyrido[3,4-b]indole]	28%	34%	50%	67.5 ± 13.9%	~ 32.5%	44.2 ± 24.2%	~ 56%	> 100 µM	49.6 ×10⁻⁶ cm/s	254 ×10⁻⁶ cm/s	14.9 µM
Cc1ccccc1CN1C(=O)C2=C(CCN(Cc3ccccc3)C2)N2CCN=C12 [ONC201, reference compound]		83%	70%	13.7 ± 6.23%	~ 85%	17.5 ± 6.8%	~ 85%	13.4 µM			
